Results reported in patent publication US11459624B2, “Compositions and methods for determining resistance to inhibitors of virus entry using recombinant virus assays” (MONOGRAM BIOSCIENCES, INC., priority 2004, dated 2022).

Test system: HIV-1
Assay: Phenotypic HIV-1 entry inhibitor susceptibility assay (pseudotyped virus, single-round infection, luciferase readout)
Type: cell-based
Conditions: for IC50 for inhibition of entry, resistant HIV relative to sensitive reference virus / maximum percentage of inhibition, resistant viruses relative to sensitive viruses: log-sigmoid inhibition curves; for IC50 for inhibition of entry, resistant HIV relative to sensitive reference virus / completeness of inhibition of entry of resistant virus at high inhibitor concentrations / maximum percentage of inhibition, resistant viruses relative to sensitive viruses: viruses resistant to the inhibitor; for IC50 for inhibition of entry, resistant HIV relative to sensitive reference virus: FIG. 5; for maximum percentage of inhibition, resistant viruses relative to sensitive viruses: FIG. 6, FIG. 8
Procedure: Susceptibility assays for HIV-1 entry inhibitors were performed using packaging host cells consisting of the human embryonic kidney cell line 293 (Cell Culture Facility, UC San Francisco, SF, Calif.) and target host cells consisting of a human osteosarcoma (HOS) cell line expressing CD4 (HT4) plus CCR5, and CXCR4, or astrocytoma (U-87) cell lines expressing either CD4 and CCR5 or CD4 and CXCR4.
Drug susceptibility testing was performed using pHIVenv and pHIVluc or pHIVlucΔU3. Pseudotyped HIV particles containing envelope proteins encoded by the subject derived segment were produced by transfecting a packaging host cell (HEK 293) with resistance test vector DNA. Virus particles were collected about 48 h after transfection and were used to infect target cells (HT4/CCR5/CXCR4, or U-87/CD4/CXCR4, or U-87/CD4/CCR5) that express the HIV receptor (i.e. CD4) and co-receptors (i.e. CXCR4, CCR5). After infection (~72 h) the target cells are lysed and luciferase activity is measured. HIV must complete one round of replication to successfully infect the target host cell and produce luciferase activity. The amount of luciferase activity detected in the infected cells is used as a direct measure of “infectivity” (FIGS. 1 and 2). […] Drug susceptibility is assessed by comparing the infectivity in the absence of drug to infectivity in the presence of drug.
Packaging host cells were seeded in 10-cm-diameter dishes and were transfected one day after plating with pHIVenv and pHIVluc or pHIVlucΔU3. Transfections were performed using a calcium-phosphate co-precipitation procedure. The cell culture media containing the DNA precipitate was replaced with fresh medium, from one to 24 hours, after transfection. Cell culture media containing viral particles was typically harvested 2 days after transfection and was passed through a […] filter. Before infection, target cells were plated in cell culture media. […] Typically, 3 days after infection target cells were assayed for luciferase activity using the Steady-Glo reagent (Promega) and a luminometer.
However, any such susceptibility assay known by one of skill in the art can in principle be used in the methods for determining phenotypic drug susceptibility. Drug susceptibility can be plotted, for example, as percent inhibition versus log10 drug concentration and defined based on, for example, the IC50 and percent inhibition at the highest drug concentration. […] In this example, the phenotypic drug susceptibility assay of Example 1 was used to determine a log-sigmoid curve showing the resistance of mutant HIV to SCH-C, TNX-355, T-20, and AMD-3100.

Compound: c1cc(CN2CCCNCCNCCCNCC2)ccc1CN1CCCNCCNCCCNCC1 [AMD-3100]
- IC50 for inhibition of entry, resistant HIV relative to sensitive reference virus: increased IC50
- completeness of inhibition of entry of resistant virus at high inhibitor concentrations: can be completely inhibited

Compound: CCO/N=C(\c1ccc(Br)cc1)C1CCN(C2(C)CCN(C(=O)c3c(C)cc[n+]([O-])c3C)CC2)CC1 [SCH-C]
- maximum percentage of inhibition, resistant viruses relative to sensitive viruses: reduced maximum percentage of inhibition

Compound: TNX-355: HIV entry inhibitor (Tanox Inc.), non-competitive
- maximum percentage of inhibition, resistant viruses relative to sensitive viruses: reduced maximum percentage of inhibition

Compound: enfuvirtide
- susceptibility of viruses with drug resistance mutations in the gp41 envelope protein (cells expressing CD4, CCR5 and CXCR4, isogenic viruses with one or two gp41 mutations, FIG. 4B): reduced susceptibility
- IC50 for inhibition of entry, resistant HIV relative to sensitive reference virus: increased IC50
- completeness of inhibition of entry of resistant virus at high inhibitor concentrations: can be completely inhibited
